The nature of data set [1]: Solubility of asenapine maleate in water and solvents. It is filed as physicochemical.
The next data set in a line: pKa of asenapine maleate. It is filed as physicochemical.

Structures can show the parent of a compound that is named as a salt. Where two headings read alike, the source gives them in different places.

For `CN1C[C@@H]2c3ccccc3Oc3ccc(Cl)cc3[C@H]2C1` (racemic) [asenapine maleate], the solubility (usually how much of the substance goes into solution per volume) turned out to be 700 mg/mL in data set [1] (N-methylpyrrolidone, organic solvent or mixture, NMP, read-out: N-methylpyrrolidone (NMP) solubility); 500 mg/mL in data set [1] (benzyl alcohol, organic solvent or mixture, BA, read-out: benzyl alcohol (BA) solubility); 324 mg/mL in data set [1] (dichloromethane, organic solvent or mixture, DCM, read-out: dichloromethane (DCM) solubility); 700 mg/mL in data set [1] (dimethyl sulfoxide, organic solvent or mixture, DMSO, read-out: dimethyl sulfoxide (DMSO) solubility); 100 mg/mL in data set [1] (ethanol, organic solvent or mixture, EtOH, read-out: ethanol (EtOH) solubility); 10 mg/mL in data set [1] (ethyl acetate, organic solvent or mixture, EA, read-out: ethyl acetate (EA) solubility). The solubility in data set [1] (water, read-out: water solubility) is 3 mg/mL. Besides, the pKa (commonly the pH at which an ionisable group is half protonated) in the data set “pKa of asenapine maleate” was 8.64.
